The nature of series [1]: pH value of phenyramidol preparations. The note with it: aqueous solution. The format is physicochemical.
The test system of series [2] is male albino mice of the NMRI strain. As to the kind of experiment: intravenous toxicity (LD50, survival time) of mecamylamine preparations in mice. The format is in vivo. The note with it: ± S.E. From the text: (§1) Mecamylamine (3-methylaminoisocamphane hydrochloride) is a ganglion-blocking secondary amine, and as a base, it is an oily liquid which is soluble in lipids. Its toxicity (LD50) after intravenous administration has been estimated in male albino mice of the NMRI strain in accordance with the method of the Nordic Pharmacopoeia. The following preparations were used:
(§2) Mecamylamine hydrochloride, 1% dissolved in saline
(§3) Mecamylamine base, dissolved in soybean oil and emulsified in the conventional way. Final concentration 1%.
(§4) Mecamylamine base, directly emulsified in 5.5% glucose solution with the aid of Pluronic F-68 (a registered trade mark for a nonionic emulsifier consisting of a block polymer of ethylene oxide and propylene oxide, from Wyandotte Chemical Corporation, described on page 392 of the Extra Pharmacopoeia, Martindale, 26th Edition) and an ultrasonic apparatus (20.000 Hz). Final concentration 1%.
(§5) The injections were given in the dorsal tail vein at a speed of 0.1 ml per 5 seconds.

Assay in series [3]: as above
The format is in vivo, male albino mice of the NMRI strain. The note with it: mouse, in vivo, 1% preparations, fiducial limits at P = 0.05.
From the text: as §1, §2, §3, §4, §5

Series [4] deals with hind leg of cats anaesthetized with chloralose. The note with it: intraarterial, about 1-2 mg/kg.
For another series, the system named is mouse. Description: sleeping time in mouse (loss of righting reflex). The format is in vivo. The note with it: single dose. From the text: The sleeping time after a single dose injection of the emulsion was shorter than the sleeping time after injection of an aqueous solution of sodium hexobarbital:
In accordance with common practice, the sleeping time has been set as the duration of the loss of the righting reflex.

The subject of series [5] is chloralose-anaesthetized cat. Description: effect on blood pressure in chloralose-anaesthetized cat. It counts as in vivo. The note with it: intravenous. As for the experimental part:
The effects of the emulsion on the blood pressure when given intravenously in a dose of 5-10 mg/kg was registered on a chloralose-anaesthetized cat.

Structures can show the parent of a compound that is named as a salt.

As to `OC(CNc1ccccn1)c1ccccc1` (stereo not drawn) [phenyramidol hydrochloride], the “pH value compared with the emulsion” value in series [1] is given as “lower pH value”.
For the compound `CNC1(C)C2CCC(C2)C1(C)C` (stereo not drawn) [Mecamylamine HCl, 3-methylaminoisocamphane hydrochloride], the “Survival time (time from the injections to death)” value in series [2] worked out at 55 ± 5.1 s. In addition, the LD50 (in general, the dose expected to kill half of the subjects tested) in series [3] stood at 16.3 mg/kg.
Turning to `CC1CC(OC(=O)C(O)c2ccccc2)CC(C)(C)C1` (stereo not drawn) [Cyclandelate, 3,5,5-trimethylcyclohexyl mandelate], the onset of vasodilatation entry in series [4] is given as “within a few seconds”. The vasodilatation result in series [4] (especially in noradrenaline induced vasoconstriction) is “marked vasodilatation”.
`CN1C(=O)NC(=O)C(C)(C2=CCCCC2)C1=O` (stereo not drawn) [sodium hexobarbital]: the figures for the Sleeping time with mouse (72 mg/kg) and in the series on mouse (86 mg/kg) were 172 s and 905 s, respectively. For the same compound, in series [5], the “duration of blood pressure depression, emulsion and sodium hexobarbital solution” value was “about the same duration”. Besides, the “depression of blood pressure” value in series [5] (5-10 mg/kg) is reported as “about 6 mm Hg”.

The values above are taken from patent publication USRE32393E, “Composition for enhancing the administration of pharmacologically active agents” (KabiVitrum AB, priority 1967, dated 1987).
